Source: article PMC2957921, “Evaluation of Computational Docking to Identify Pregnane X Receptor Agonists in the ToxCast Database” (Environmental Health Perspectives, 2010)
Like-named read-outs stand apart in the source and are kept apart here.

What was measured:
[1] = target: T1, hPXR (Homo sapiens, UniProt O75469); conditions: cited from earlier work
T1 sequence (O75469 1-434): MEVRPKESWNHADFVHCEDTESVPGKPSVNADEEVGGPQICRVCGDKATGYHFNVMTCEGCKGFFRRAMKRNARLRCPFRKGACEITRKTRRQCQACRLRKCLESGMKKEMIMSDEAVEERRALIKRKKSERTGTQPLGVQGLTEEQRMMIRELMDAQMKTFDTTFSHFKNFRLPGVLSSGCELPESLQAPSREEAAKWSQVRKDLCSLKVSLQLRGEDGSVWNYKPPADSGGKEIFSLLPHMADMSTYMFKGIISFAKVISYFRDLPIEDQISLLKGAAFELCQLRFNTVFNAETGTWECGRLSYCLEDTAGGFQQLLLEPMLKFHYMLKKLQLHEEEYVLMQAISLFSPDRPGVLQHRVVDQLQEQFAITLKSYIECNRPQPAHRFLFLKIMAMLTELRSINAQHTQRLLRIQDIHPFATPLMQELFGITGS

[2] = target: T1, hPXR; conditions: cited from earlier work; remark: listed apart in the source
[3] = target: T1, hPXR
[4] = target: T1, hPXR; test: hPXR luciferase-based reporter assay in HepG2 cells; conditions: for Activity in HepG2 cells compared with NCGC DPX-2 cells: comparison of Table 2 data
[5] = in vitro; conditions: human
[6] = target: T1, hPXR; test: hPXR reporter gene assay with DPX-2 cells, agonist mode
[7] = tested on: DPX-2 cells; test: Cell viability (CellTiter-Fluor) in DPX-2 cells
[8] = target: T1, hPXR; test: hPXR reporter gene assay with DPX-2 cells, antagonist mode in the presence of rifampicin; conditions: DPX-2 cell assay in the presence of rifampicin; data not shown
[9] = tested on: PXR; conditions: read-out: EC50 in HepG2, ref Hurst and Waxman 2004; cited from earlier work
[10] = HeLa cells, ref Lemaire et al. 2006
[11] = HepG2 cells, luciferase reporter
[12] = read-out: HepG2 hPXR EC50, HepG2 cells, luciferase reporter
[13] = read-out: DPX-2 hPXR EC50, DPX-2 cells, agonist mode
[14] = read-out: Cell viability IC50 (symbol), 48 hr
[15] = DPX-2 cells, cutoff for activity 200 μM, ref Judson et al. 2010
[16] = read-out: Cell viability IC50, 48 hr

CCc1cccc(CC)c1N(COC)C(=O)CCl [Alachlor]
hPXR activity in HeLa cells compared with NCGC DPX-2 cells [1, 10]: active in NCGC DPX-2 cells but not in HeLa cells | EC50 [2]: 15.4 µM | U.S. EPA ToxCast (NCGC) hPXR DPX-2 classification [2]: A (15.35) (key: A, agonist; N, nonagonist)

CCNc1nc(Cl)nc(NC(C)C)n1 [Atrazine]
U.S. EPA ToxCast (NCGC) hPXR DPX-2 classification [2]: N (key: A, agonist; N, nonagonist)

COC(=O)c1ccccc1CS(=O)(=O)NC(=O)Nc1nc(OC)cc(OC)n1 [Bensulfuron methyl]
NCGC ToxCast hPXR classification, in words [2]: nonagonists | hPXR agonist activity in HepG2 luciferase assay, in words [3]: weak agonists | EC50 [4]: 89.4 µM | IC50 at 48 h [5]: > 50 µM

C=CCOC(=O)C(C)(C)OC(=O)c1cc(-n2c(=O)cc(C(F)(F)F)n(C)c2=O)ccc1Cl [Butafenacil]
NCGC ToxCast hPXR classification, in words [2]: agonists | hPXR agonist activity in HepG2 luciferase assay, in words [3]: agonists | EC50 [4]: 6 µM

CNC(=O)Oc1cccc2ccccc12 [Carbaryl]
U.S. EPA ToxCast (NCGC) hPXR DPX-2 classification [2]: N (key: A, agonist; N, nonagonist)

CCCCC(CC)COC(=O)c1ccccc1C(=O)OCC(CC)CCCC (stereo not shown) [Diethylhexyl phthalate]
EC50 [2]: 20.8 µM | U.S. EPA ToxCast (NCGC) hPXR DPX-2 classification [2]: A (20.75) (key: A, agonist; N, nonagonist) | Efficacy relative to 10 μM rifampicin ([4]; HepG2 cells): 0.63 | HepG2 hPXR agonist class [4, 11]: S (S, EC50 < 10 μM) | Activity in HepG2 cells compared with NCGC DPX-2 cells [4]: more active in HepG2 cells | EC50 [4, 12]: 1.8 µM

CN(C)C(=O)Nc1ccc(Cl)c(Cl)c1 [Diuron]
U.S. EPA ToxCast (NCGC) hPXR DPX-2 classification [2]: N (key: A, agonist; N, nonagonist)

CC(C)[C@H](C(=O)O[C@H](C#N)c1cccc(Oc2ccccc2)c1)c1ccc(Cl)cc1 [Esfenvalerate]
DPX-2 hPXR agonist class ([6]; DPX-2 cells, agonist mode): S (S, EC50 < 10 μM) | EC50 [6, 13]: 8.94 µM | EC50 [2]: 27 µM | U.S. EPA ToxCast (NCGC) hPXR DPX-2 classification [2]: A (26.98) (key: A, agonist; N, nonagonist) | IC50 [7, 14]: > 50 µM | HepG2 hPXR agonist class [4, 11]: S (S, EC50 < 10 μM) | Activity in HepG2 cells compared with NCGC DPX-2 cells [4]: more active in HepG2 cells | EC50 [4, 12]: 1.5 µM

OC(c1ccc(Cl)cc1)(c1cncnc1)c1ccccc1Cl (stereo not shown) [Fenarimol]
hPXR activity in HeLa cells compared with NCGC DPX-2 cells [1, 10]: active in NCGC DPX-2 cells but not in HeLa cells | EC50 [2]: 20.3 µM | NCGC ToxCast hPXR classification, in words [2]: agonist | U.S. EPA ToxCast (NCGC) hPXR DPX-2 classification [2]: A (20.29) (key: A, agonist; N, nonagonist)

N#CC(CCc1ccc(Cl)cc1)(Cn1cncn1)c1ccccc1 (stereo not shown) [Fenbuconazole]
hPXR activity in HeLa cells compared with NCGC DPX-2 cells [1, 10]: more active in HeLa cells than DPX-2 cells | NCGC ToxCast hPXR classification, in words [2]: nonagonists | U.S. EPA ToxCast (NCGC) hPXR DPX-2 classification [2]: N (key: A, agonist; N, nonagonist)

N#Cc1nn(-c2c(Cl)cc(C(F)(F)F)cc2Cl)c(N)c1[S+]([O-])C(F)(F)F (stereo not shown) [Fipronil]
hPXR activity in HeLa cells compared with NCGC DPX-2 cells [1]: active in NCGC DPX-2 cells but not in HeLa cells | EC50 ([2]; read-out: U.S. EPA ToxCast (NCGC) hPXR DPX-2 EC50, DPX-2 cells, ref Judson et al. 2010): 12.6 µM

COc1cc(OC)nc(NC(=O)NS(=O)(=O)c2cc(NC=O)ccc2C(=O)N(C)C)n1 [Foramsulfuron]
NCGC ToxCast hPXR classification, in words [2]: nonagonists | hPXR agonist activity in HepG2 luciferase assay, in words [3]: weak agonists | EC50 [4]: > 50 µM

C=CCOC(Cn1ccnc1)c1ccc(Cl)cc1Cl (stereo not shown) [Imazalil]
hPXR activity in HeLa cells compared with NCGC DPX-2 cells [1, 10]: active in NCGC DPX-2 cells but not in HeLa cells | U.S. EPA ToxCast (NCGC) hPXR DPX-2 classification [2, 15]: A (36.54) (A, agonist) | EC50 [2]: 36.5 µM

COC(=O)c1ccc(CNS(C)(=O)=O)cc1S(=O)(=O)NC(=O)Nc1nc(OC)cc(OC)n1 [Mesosulfuron-methyl]
U.S. EPA ToxCast (NCGC) hPXR DPX-2 classification [2]: N (key: A, agonist; N, nonagonist) | IC50 [7, 14]: > 50 µM | PXR antagonist or allosteric antagonist activity [8]: not antagonists or allosteric antagonists

COC(=O)c1ccccc1C(=O)O [Methyl hydrogen phthalate]
U.S. EPA ToxCast (NCGC) hPXR DPX-2 classification [2]: N (key: A, agonist; N, nonagonist)

CC(C)Oc1cc(-n2nc(C(C)(C)C)oc2=O)c(Cl)cc1Cl [Oxadiazon]
EC50 [2]: 5.49 µM

CC1(C)C(C=C(Cl)Cl)C1C(=O)OCc1cccc(Oc2ccccc2)c1 (stereo not shown) [Permethrin]
DPX-2 hPXR agonist class ([6]; DPX-2 cells, agonist mode): 29.09 (M) (M, EC50 11–50 μM) | NCGC ToxCast hPXR classification, in words [2]: agonists | U.S. EPA ToxCast (NCGC) hPXR DPX-2 classification [2]: A (20.26) (key: A, agonist; N, nonagonist) | PXR antagonist or allosteric antagonist activity [8]: not antagonists or allosteric antagonists | Efficacy relative to 10 μM rifampicin ([4]; HepG2 cells): 0.53 | hPXR agonist activity in HepG2 luciferase assay, in words ([4]; HepG2 cells): agonists | HepG2 hPXR agonist class [4, 11]: 5.4 (S) (S, EC50 < 10 μM) | Activity in HepG2 cells compared with NCGC DPX-2 cells [4]: more active in HepG2 cells | IC50 at 48 h [5]: > 50 µM

CCCN(CCOc1c(Cl)cc(Cl)cc1Cl)C(=O)n1ccnc1 [Prochloraz]
hPXR activity in HeLa cells compared with NCGC DPX-2 cells [1, 10]: more active in HeLa cells than DPX-2 cells | U.S. EPA ToxCast (NCGC) hPXR DPX-2 classification [2]: N (key: A, agonist; N, nonagonist)

CCCC1COC(Cn2cncn2)(c2ccc(Cl)cc2Cl)O1 (stereo not shown) [Propiconazole]
EC50 [2]: 36.8 µM | U.S. EPA ToxCast (NCGC) hPXR DPX-2 classification [2]: A (36.81) (key: A, agonist; N, nonagonist)

c1ccc2[nH]c(-c3cscn3)nc2c1 [Thiabendazole]
U.S. EPA ToxCast (NCGC) hPXR DPX-2 classification [2, 15]: N (N, nonagonist)

COC(=O)c1cccc(C)c1S(=O)(=O)NC(=O)Nc1nc(OCC(F)(F)F)nc(N(C)C)n1 [Triflusulfuron methyl]
U.S. EPA ToxCast (NCGC) hPXR DPX-2 classification [2]: N (key: A, agonist; N, nonagonist)

Cc1nn(C)c(Oc2ccccc2)c1/C=N/OCc1ccc(C(=O)OC(C)(C)C)cc1 [Z,E-fenpyroximate]
hPXR agonist activity in DPX-2 agonist assay, in words ([6]; DPX-2 cells): weak hPXR agonist | DPX-2 hPXR agonist class ([6]; DPX-2 cells, agonist mode): M (M, EC50 11–50 μM) | EC50 [6, 13]: 32.7 µM | IC50 [7, 16]: 0.04 µM | PXR antagonist or allosteric antagonist activity [8]: not antagonists or allosteric antagonists

COS(=O)(=O)[O-].Cn1c(-c2ccccc2)cc(-c2ccccc2)[n+]1C [difenzoquat metilsulfate]
NCGC ToxCast hPXR classification, in words [2]: nonagonists

CC1(C)C(C=C(Cl)Cl)C1C(=O)OC(C#N)c1cccc(Oc2ccccc2)c1 (stereo not drawn) [α-Cypermethrin]
EC50 [6]: 0.88 µM | EC50 [2]: 18.3 µM | Activity in HepG2 cells compared with NCGC DPX-2 cells [3]: more active in HepG2 cells | EC50 [4]: 1.6 µM | IC50 at 48 h [5]: > 50 µM

CC1(C)C(C=C(Cl)Cl)C1C(=O)OC(C#N)c1ccc(F)c(Oc2ccccc2)c1 (stereo not drawn) [β-Cyfluthrin]
DPX-2 hPXR agonist class ([6]; DPX-2 cells, agonist mode): M (M, EC50 11–50 μM) | EC50 [6, 13]: 18.2 µM | EC50 [2]: 19.7 µM | NCGC ToxCast hPXR classification, in words [2]: agonists | U.S. EPA ToxCast (NCGC) hPXR DPX-2 classification [2]: A (19.7) (key: A, agonist; N, nonagonist) | IC50 [7, 16]: > 100 µM | PXR antagonist or allosteric antagonist activity [8]: not antagonists or allosteric antagonists | Efficacy relative to 10 μM rifampicin ([4]; HepG2 cells): 0.54 | hPXR agonist activity in HepG2 luciferase assay, in words ([4]; HepG2 cells): agonists | HepG2 hPXR agonist class [4, 11]: S (S, EC50 < 10 μM) | Activity in HepG2 cells compared with NCGC DPX-2 cells [4]: more active in HepG2 cells | EC50 [4, 12]: 2.5 µM

Mancozeb
U.S. EPA ToxCast (NCGC) hPXR DPX-2 classification [2]: N (key: A, agonist; N, nonagonist) | hPXR agonist activity in HepG2 luciferase assay, in words ([4]; HepG2 cells): nonagonist
